# Legend:
# [1] = target: T1, Human GPR120 short form (short splice variant, NM_001195755.1) (Homo sapiens, UniProt Q5NUL3); assay: Human GPR120 Calcium Flux Assay; assay type: cell-based; settings: HEK-293 cells, 4200 cells/well, read-out: Human GPR120 Calcium Flux Assay Procedure B EC50
# T1 construct: expressed in transfected cells; host or cells: HEK293
# T1 sequence (Q5NUL3 1-361): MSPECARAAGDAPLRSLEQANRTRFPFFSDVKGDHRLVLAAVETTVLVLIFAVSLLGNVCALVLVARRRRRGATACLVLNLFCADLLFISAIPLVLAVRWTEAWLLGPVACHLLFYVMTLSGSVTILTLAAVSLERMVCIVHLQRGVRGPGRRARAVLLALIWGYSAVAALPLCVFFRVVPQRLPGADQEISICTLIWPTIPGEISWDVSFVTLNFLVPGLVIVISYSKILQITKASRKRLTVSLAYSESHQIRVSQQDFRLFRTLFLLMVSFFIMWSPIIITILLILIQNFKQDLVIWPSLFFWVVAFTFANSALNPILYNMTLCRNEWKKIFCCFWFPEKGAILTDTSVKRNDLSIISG
# Excerpt: In Vitro Assay: Human GPR120 in Calcium Flux Assay
# This in vitro assay serves to assess test compound agonist activity against the short splice variant (SVS with Accession number NM_001195755.1 confirmed by sequencing data) of the GPR120 receptor. The Human Short splice variant #2 (NM_001195755.1) is missing an in-frame coding exon compared to variant 1 (the Human Long splice variant NM_181745.3), resulting in a shorter isoform (GPR120-S) lacking a 16 aa protein segment compared to isoform GPR120-L. The assay platform utilizes HEK-293 cells stably transfected to express the Human GPR120 short form. These cells are first loaded with the Ca^+2 sensitive dye, Fluo-4 NW. Upon stimulation, intracellular released Ca^+2 can bind to the dye and alter its fluorescence intensity. This increase in fluorescence signal, and thus the flux in intracellular [Ca^2+], is detected and quantitated by fluorescence imaging using a FLIPR reader. The effect of the agonist is measured as a function of concentration and used to calculate an EC50 based upon a response curve. […]
# In this procedure 4200 cells/well were employed.
# A Human GPR120 clone (Genbank accession number NM_001195755.1) was placed into the pcDNA3.1 mammalian expression vector carrying the neomycin resistance gene. A stable mammalian cell was generated by placing the above clone into a HEK293 background. Clonal cells responding to long chain fatty acids had expression levels of GPR120 confirmed by RT-qPCR. Human HEK-GPR120 cells were cultured in Dulbecco's Modified Eagle's Medium (DMEM)/F12 medium supplemented with 10% fetal bovine serum (FBS), 1% L-Glutamine and 1% penicillin/streptomycin and 0.5 mg/ml G-418. Cells were split 2 times a week to keep the cells in the log-phase growth.
# In preparation for the assay, HEK cells stably transfected with Human GPR120 (2.5K cells per well in 25 uL growth medium) were seeded into 384-well plates and then incubated overnight (37° C., 5% CO2). The next day, the media was changed to 20 μL assay buffer and the cell starved for 1 h at 37° C. The dye loading solution (2× dye) was prepared using 10 mL assay buffer, 100 μL of 250 mM probenecid, 1 bottle of Component A, and 20 μl of dye in DMSO. Twenty μL of the 2× dye loading buffer was then added to each well. The plates were incubated at 37° C. for 30 min, then at room temperature for an additional 15 minutes, before performing the assay on FLIPR.
# The assay was performed on a FLIPR plate reader using the following parameters. Baseline was read for 10 seconds at 1 sec intervals. The program was set to transfer 10 μL of ligand from compound plate to cell plate after baseline reading. Aspiration was executed at: 10 μL/sec speed, 4.6 μL height; Dispensing was executed at: 30 μL/sec speed, 45 μL height. After compound addition, each well was read for 300 sec, with measurements collected at 1 sec intervals.
# The kinetic data from the FLIPR was based upon a 5 minute window for data collection. The fluorescence of each sample well was used for individual calculations of a normalized RFU value, which was defined as maximum response minus the minimum response. The normalized fluorescence reading (RFU) was calculated as follows:
# The data were fitted to a sigmoidal dose-response curve with a variable Hill slope (<2) using nonlinear regression with GraphPad Prism 5.0 to calculate the EC50 values. The Fitting Equation was: Y=Bottom+(Top−Bottom)/(1+10^((Log EC50−X)*HillSlope)), where X is the log of the concentration and Y is the response.
# GPR40 = GPR40 (UniProt O14842); assay: GPR40 Calcium Flux Assay; assay type: cell-based; settings: transfected HEK293 cells stably expressing human or rat GPR40; species not given
# Protocol: Biological Example 3: In Vitro Assay
# Compounds were tested in a calcium flux assay using transfected HEK293 cells stably expressing either human GPR40 or rat GPR40. Human GPR40 expressing cells were cultured in DMEM-High Glucose media supplemented with 10% fetal bovine serum, 1×L-Glutamine, 1× Penicillin/Streptomycin and 500 μg/mL G418. Rat GPR40 expressing cells were cultured in DMEM-High Glucose media supplemented with 10% fetal bovine serum and 1 μg/mL puromycin. Cells were plated into poly-D-lysine coated 384-well plates and cultured overnight in a 37° C. humidified tissue culture incubator under 5% CO2/90% O2 atmosphere.
# On the day of the experiment, the culture media was replaced with assay buffer (HBSS, 20 mM HEPES, 0.1% BSA) and the cells incubated at 37° C. for 1 h. Calcium-sensitive fluorescent dye (Fluo 8 No-Wash Calcium Dye, ABD Bioquest) was then added and the cells incubated for another 30 min at 37° C. followed by 15 min at room temperature while protected from the light. The cell plate and a plate of diluted compounds of Formula (I) were loaded into a fluorescent plate reader that added compounds onto the cells while measuring the fluorescence intensity of each well. The plate reader recorded fluorescence intensity at 1 second intervals for 8 min and provided the data for analysis in an Excel format. EC50 values were calculated using Prism (GraphPad) software.
EC50 [1],EC50 (GPR40),SMILES
1190 nM,973 nM,CC(C)CCC1=C(COc2ccc(CCC(=O)O)c(C(F)(F)F)c2)COCC1 [compound 722]
229 nM,,Cc1cc(CCC(=O)O)ccc1OCC1=C(c2ccccc2)COC1 [compound 630]
66 nM,> 10000 nM,Cc1ccc(C2=C(COc3ccc(CCC(=O)O)c(C)c3C)COCC2)cc1F [compound 659]
> 5000 nM,1060 nM,CC(C)CC1=C(COc2ccc(CCC(=O)O)c(Cl)c2)COCC1 [compound 732]
> 5000 nM,3190 nM,O=C(O)CCc1ccc(OCC2=C(Cc3ccc(Cl)cc3)CCOC2)cc1 [compound 695]
> 5000 nM,,CC1(C)CCC=C1C1=C(COc2ccc(CCC(=O)O)c(C(F)(F)F)c2)COCC1 [compound 670]
927 nM,2680 nM,O=C(O)CCc1ccc(OCC2=C(C3CCCC3)CCOC2)cc1 [compound 738]
> 5000 nM,324 nM,Cc1ccc(CC2=C(COc3ccc(CCC(=O)O)c(C(F)(F)F)c3)COCC2)cc1 [compound 692]
> 5000 nM,> 10000 nM,C=C(C1=C(COc2ccc(CCC(=O)O)cc2F)COCC1)c1ccccc1 [compound 723]
818 nM,93 nM,O=C(O)CCc1ccc(OCC2=C(C3CCCC3)CCOC2)cc1C(F)(F)F [compound 731]
115 nM,,Cc1c(CCC(=O)O)ccc(OCC2=C(c3ccc(Cl)cc3F)CCOC2)c1C [compound 667]
1360 nM,7880 nM,Cc1ccc(C2=C(COc3ccc(CCC(=O)O)cc3)CCOCC2)cc1F [compound 783]
202 nM,,Cc1c(CCC(=O)O)ccc(OCC2=C(c3ccccc3F)CCOC2)c1C [compound 651]
1840 nM,571 nM,CCC1=C(COc2ccc(CCC(=O)O)c(C(F)(F)F)c2)COCC1 [compound 716]
868 nM,,COc1cccc(C2=C(COc3ccc(CCC(=O)O)c(C)c3C)COCC2)c1 [compound 656]
498 nM,,Cc1ccc(C2=C(COc3ccc(CCC(=O)O)c(C(F)(F)F)c3)COCC2)cc1 [compound 668]
1600 nM,386 nM,O=C(O)CCc1ccc(OCC2=C(C3CCCC3)CCOC2)cc1Cl [compound 727]
2940 nM,3250 nM,O=C(O)CCc1ccc(OCC2=C(Cc3ccccc3)CCOC2)cc1 [compound 688]
> 5000 nM,1020 nM,CCCCCCC1=C(COc2ccc(CCC(=O)O)c(C(F)(F)F)c2)COCC1 [compound 719]
> 5000 nM,,O=C(O)CCc1ccc(OCC2=C(c3ccccc3OC(F)(F)F)CCOC2)cc1C(F)(F)F [compound 674]
> 5000 nM,,Cc1cc(CCC(=O)O)ccc1OCC1=C(c2ccc(F)cc2)C[S+]([O-])C1 (centres unmarked) [compound 627]
> 5000 nM,703 nM,O=C(O)CCc1ccc(OCC2=C(Cc3ccccc3)CCOC2)cc1Cl [compound 713]
94 nM,,Cc1ccc(C2=C(COc3ccc(CCC(=O)O)c(C)c3C)COCC2)cc1 [compound 655]
> 5000 nM,339 nM,C=C(C1=C(COc2ccc(CCC(=O)O)c(Cl)c2)COCC1)c1ccccc1 [compound 720]

EC50 [1],EC50 (GPR40),SMILES
1090 nM,> 10000 nM,Cc1ccc(C2=C(COc3ccc(CCC(=O)O)cc3)CCOC2)cc1F [compound 769]
2680 nM,847 nM,O=C(O)CCc1ccc(OCC2=C(C3CCCCC3)CCOC2)cc1C(F)(F)F [compound 729]
> 5000 nM,335 nM,COc1ccc(CC2=C(COc3ccc(CCC(=O)O)c(C(F)(F)F)c3)COCC2)cc1 [compound 698]
275 nM,> 10000 nM,Cc1c(CCC(=O)O)ccc(OCC2=C(C3CCC3)CCOC2)c1C [compound 724]
786 nM,2700 nM,Cc1ccc(C2=C(COc3ccc(CCC(=O)O)c(C(F)(F)F)c3)COCC2)c(F)c1 [compound 684]
2750 nM,,Cc1ccc(C2=C(COc3cc(C(F)(F)F)c(CCC(=O)O)c(C(F)(F)F)c3)COCC2)cc1 [compound 666]
> 5000 nM,,Cc1cc(Cl)ccc1C1=C(COc2ccc(CCC(=O)O)c(C(F)(F)F)c2)COCC1 [compound 682]
1060 nM,,Cc1ccc(C2=C(COc3ccc(CCC(=O)O)c(C(F)(F)F)c3)COCC2)cc1C [compound 683]
> 5000 nM,,O=C(O)CCc1ccc(OCC2=C(c3cccc4c3OC(F)(F)O4)CCOC2)cc1C(F)(F)F [compound 673]
> 5000 nM,,Cc1c(CCC(=O)O)ccc(OCC2=C(c3cccnc3)CCOC2)c1C [compound 654]
2200 nM,,COc1cc(Cl)ccc1C1=C(COc2ccc(CCC(=O)O)c(C)c2C)COCC1 [compound 662]
> 5000 nM,,CC(C)Oc1ccccc1C1=C(COc2ccc(CCC(=O)O)c(C(F)(F)F)c2)COCC1 [compound 677]
> 5000 nM,,Cc1cccc(C)c1C1=C(COc2ccc(CCC(=O)O)c(C(F)(F)F)c2)COCC1 [compound 671]
> 5000 nM,,O=C(O)CCc1ccc(OCC2=C(Cc3ccccc3)CCOC2)cc1C(F)(F)F [compound 678]
170 nM,,Cc1c(CCC(=O)O)ccc(OCC2=C(c3ccc(Cl)c(F)c3)CCOC2)c1C [compound 663]
1920 nM,,Cc1cc(C2=C(COc3ccc(CCC(=O)O)c(C(F)(F)F)c3)COCC2)ccc1Cl [compound 679]
832 nM,,Cc1ccc(C2=C(COc3ccc(CCC(=O)O)c(C(F)F)c3)COCC2)cc1 [compound 665]
149 nM,,Cc1c(CCC(=O)O)ccc(OCC2=C(c3ccc(F)cc3F)CCOC2)c1C [compound 660]
> 5000 nM,,COc1cc(C2=C(COc3ccc(CCC(=O)O)c(C)c3C)COCC2)ccc1Cl [compound 664]
> 5000 nM,,Cc1cccc(C)c1C1=C(COc2ccc(CCC(=O)O)c(Cl)c2)COCC1 [compound 669]
2630 nM,,O=C(O)CCc1ccc(OCC2=C(c3ccc(Cl)c(Cl)c3)CCOC2)cc1C(F)(F)F [compound 680]
527 nM,,Cc1cc(C2=C(COc3ccc(CCC(=O)O)c(C)c3C)COCC2)ccc1F [compound 661]
> 5000 nM,,Cc1cc(C)c(C2=C(COc3ccc(CCC(=O)O)c(C(F)(F)F)c3)COCC2)cc1C [compound 681]
> 5000 nM,,COc1ccccc1C1=C(COc2ccc(CCC(=O)O)c(C(F)(F)F)c2)COCC1 [compound 676]

# Reference: patent US20210024483A1, “HETEROCYLCOALKENYL DERIVATIVES USEFUL AS AGONISTS OF THE GPR120 AND / OR GPR40” (Janssen Pharmaceutica NV, priority 2018, published 2021)
